Laboratory results taken from US20100267561A1, “HERBICIDAL PYRIDAZINONE DERIVATIVES” (priority 2007, published 2010).

Tests used:
[1] = test system: Canada horseweed (Conyza canadensis); assay: Test E pre-/postemergence plant response; format: in vivo; conditions: Postemergence, scale 0 to 100
Procedure, shortened: (§1)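 Visual rating 0–100 vs untreated controls (0 = no effect, 100 = complete control) after 14–21 d greenhouse. Pre- and postemergence treatments; compound in non-phytotoxic solvent mix + surfactant. Post plants 2–18 cm, 1- to 4-leaf stage.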

[2] = test system: spanishneedles (Bidens bipinnata); assay: Test E pre-/postemergence plant response; format: in vivo; conditions: scale 0 to 100
Procedure, shortened: as §1

[3] = test system: common ragweed (Ambrosia elation); assay: Test E pre-/postemergence plant response; format: in vivo; conditions: scale 0 to 100
Procedure, shortened: as §1

[4] = test system: Russian thistle (Salsola kali); assay: Test E pre-/postemergence plant response; format: in vivo; conditions: 31 g ai/ha, Preemergence, scale 0 to 100
Procedure, shortened: as §1

[5] = test system: common sowthistle (Sonchus oleraceous); assay: Test E pre-/postemergence plant response; format: in vivo; conditions: Postemergence, scale 0 to 100
Procedure, shortened: as §1

[6] = test system: field bindweed (Convolvulus arvensis); assay: Test E pre-/postemergence plant response; format: in vivo; conditions: scale 0 to 100
Procedure, shortened: as §1

[7] = test system: Virginia (V.) dayflower (Commelina virginica); assay: Test E pre-/postemergence plant response; format: in vivo; conditions: scale 0 to 100
Procedure, shortened: as §1

kochia (Kochia scoparia) = assay: Test E pre-/postemergence plant response; format: in vivo; conditions: scale 0 to 100
Procedure, shortened: as §1

[8] = test system: prickly sida (Sida spinosa); assay: Test E pre-/postemergence plant response; format: in vivo; conditions: scale 0 to 100
Procedure, shortened: as §1

canola (Brassica rapa) = assay: Test C pre-/postemergence plant response; format: in vivo
Procedure, shortened: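 Seeds are planted and sprayed preemergence, while established plants at the 1- to 4-leaf stage (2 to 18 cm) receive postemergence sprays of the same surfactant-containing, non-phytotoxic solvent formulation. After 15 to 25 days under controlled conditions, injury is scored visually from 0 (no effect) to 100 (complete control).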

[9] = test system: tropical (T.) spiderwort (Commelina benghalensis); assay: Test E pre-/postemergence plant response; format: in vivo; conditions: scale 0 to 100
Procedure, shortened: as §1

[10] = Postemergence, 8 g ai/ha, scale 0 to 100, 0 no effect, 100 complete control
[11] = Postemergence, 16 g ai/ha, scale 0 to 100, 0 no effect, 100 complete control
[12] = Postemergence, 31 g ai/ha, scale 0 to 100, 0 no effect, 100 complete control
[13] = Postemergence, 62 g ai/ha, scale 0 to 100, 0 no effect, 100 complete control
[14] = Preemergence, 8 g ai/ha, scale 0 to 100 (0 no effect, 100 complete control)
[15] = Preemergence, 16 g ai/ha, scale 0 to 100 (0 no effect, 100 complete control)
[16] = Preemergence, 31 g ai/ha, scale 0 to 100 (0 no effect, 100 complete control)
[17] = Preemergence, 62 g ai/ha, scale 0 to 100, 0 no effect, 100 complete control

CCc1cc(-c2ccc(C(F)(F)F)cc2)nn1-c1c(OS(C)(=O)=O)cnn(C)c1=O [Compound 19]
Plant response rating, Horseweed ([1]; 4 g ai/ha): 0
Plant response rating, Horseweed ([1]; 8 g ai/ha): 0
Plant response rating, Horseweed ([1]; 16 g ai/ha): 0
Plant response rating, Horseweed ([1]; 31 g ai/ha): 0
Plant response rating, Spanishneedles ([2]; 4 g ai/ha, Postemergence): 0
Plant response rating, Spanishneedles ([2]; 16 g ai/ha, Preemergence): 0
Plant response rating, Spanishneedles ([2]; 31 g ai/ha, Preemergence): 0
Plant response rating, Spanishneedles ([2]; Postemergence, 8 g ai/ha): 0
Plant response rating, Spanishneedles ([2]; Postemergence, 16 g ai/ha): 0
Plant response rating, Spanishneedles ([2]; Preemergence, 4 g ai/ha): 0
Plant response rating, Ragweed ([3]; 4 g ai/ha, Postemergence): 0
Plant response rating, Ragweed ([3]; 16 g ai/ha, Preemergence): 0
Plant response rating, Ragweed ([3]; 31 g ai/ha, Preemergence): 0
Plant response rating, Ragweed ([3]; Postemergence, 8 g ai/ha): 0
Plant response rating, Ragweed ([3]; Postemergence, 16 g ai/ha): 0
Plant response rating, Ragweed ([3]; Postemergence, 31 g ai/ha): 0
Plant response rating, Ragweed ([3]; Preemergence, 4 g ai/ha): 0
Plant response rating, Thistle, Russian [4]: 0
Plant response rating, Sowthistle ([5]; 4 g ai/ha): 0
Plant response rating, Sowthistle ([5]; 8 g ai/ha): 0
Plant response rating, Sowthistle ([5]; 16 g ai/ha): 0
Plant response rating, Sowthistle ([5]; 31 g ai/ha): 0
Plant response rating, Field Bindweed ([6]; 4 g ai/ha, Postemergence): 0
Plant response rating, Field Bindweed ([6]; 8 g ai/ha, Preemergence): 0
Plant response rating, Field Bindweed ([6]; 16 g ai/ha, Preemergence): 0
Plant response rating, Field Bindweed ([6]; 31 g ai/ha, Preemergence): 0
Plant response rating, Field Bindweed ([6]; Postemergence, 8 g ai/ha): 0
Plant response rating, Field Bindweed ([6]; Postemergence, 16 g ai/ha): 0
Plant response rating, Field Bindweed ([6]; Postemergence, 31 g ai/ha): 0
Plant response rating, Field Bindweed ([6]; Preemergence, 4 g ai/ha): 0
Plant response rating, Dayflower, V. ([7]; 4 g ai/ha, Postemergence): 0
Plant response rating, Dayflower, V. ([7]; 8 g ai/ha, Preemergence): 0
Plant response rating, Dayflower, V. ([7]; 16 g ai/ha, Preemergence): 0
Plant response rating, Dayflower, V. ([7]; Postemergence, 8 g ai/ha): 0
Plant response rating, Dayflower, V. ([7]; Postemergence, 16 g ai/ha): 0
Plant response rating, Dayflower, V. ([7]; Postemergence, 31 g ai/ha): 0
Plant response rating, Dayflower, V. ([7]; Preemergence, 4 g ai/ha): 0
Plant response rating, Kochia (kochia (Kochia scoparia); 4 g ai/ha, Postemergence): 0
Plant response rating, Kochia (kochia (Kochia scoparia); 16 g ai/ha, Preemergence): 0
Plant response rating, Kochia (kochia (Kochia scoparia); 31 g ai/ha, Preemergence): 0
Plant response rating, Kochia (kochia (Kochia scoparia); Postemergence, 16 g ai/ha): 0
Plant response rating, Kochia (kochia (Kochia scoparia); Preemergence, 4 g ai/ha): 0
Plant response rating, Prickly Sida ([8]; 4 g ai/ha, Postemergence): 0
Plant response rating, Prickly Sida ([8]; 16 g ai/ha, Preemergence): 0
Plant response rating, Prickly Sida ([8]; 31 g ai/ha, Preemergence): 0
Plant response rating, Prickly Sida ([8]; Postemergence, 8 g ai/ha): 0
Plant response rating, Prickly Sida ([8]; Postemergence, 16 g ai/ha): 0
Plant response rating, Prickly Sida ([8]; Postemergence, 31 g ai/ha): 0
Plant response rating, Prickly Sida ([8]; Preemergence, 4 g ai/ha): 0
Plant response rating, Canola (canola (Brassica rapa); [10]): 0
Plant response rating, Canola (canola (Brassica rapa); [11]): 0
Plant response rating, Canola (canola (Brassica rapa); [12]): 0
Plant response rating, Canola (canola (Brassica rapa); [13]): 0
Plant response rating, Canola (canola (Brassica rapa); [14]): 0
Plant response rating, Canola (canola (Brassica rapa); [15]): 0
Plant response rating, Canola (canola (Brassica rapa); [16]): 0
Plant response rating, Canola (canola (Brassica rapa); [17]): 0

CCc1cc(-c2ccc(Cl)c(Cl)c2)nn1-c1c(O)cnn(C)c1=O [Compound 20]
Plant response rating, Canola (canola (Brassica rapa); [10]): 0
Plant response rating, Canola (canola (Brassica rapa); [11]): 0
Plant response rating, Canola (canola (Brassica rapa); [12]): 0
Plant response rating, Canola (canola (Brassica rapa); [13]): 0

CCc1cc(-c2ccc(F)cc2)nn1-c1c(O)cnn(C)c1=O [Compound 25]
Plant response rating, Canola (canola (Brassica rapa); [10]): 0
Plant response rating, Canola (canola (Brassica rapa); [11]): 0
Plant response rating, Canola (canola (Brassica rapa); [12]): 0
Plant response rating, Canola (canola (Brassica rapa); [13]): 0
Plant response rating, Canola (canola (Brassica rapa); [14]): 0
Plant response rating, Canola (canola (Brassica rapa); [15]): 0
Plant response rating, Canola (canola (Brassica rapa); [16]): 0
Plant response rating, Canola (canola (Brassica rapa); [17]): 0

CCc1c(C)c(-c2ccc(Cl)cc2)nn1-c1c(O)cnn(C)c1=O [Compound 26, 4-[3-(4-chlorophenyl)-5-ethyl-4-methyl-1H-pyrazol-1-yl]-5-hydroxy-2-methyl-3(2H)-pyridazinone]
melting point: 227 to 229 °C
Plant response rating, Canola (canola (Brassica rapa); [10]): 0
Plant response rating, Canola (canola (Brassica rapa); [11]): 0
Plant response rating, Canola (canola (Brassica rapa); [12]): 0
Plant response rating, Canola (canola (Brassica rapa); [13]): 0
Plant response rating, Canola (canola (Brassica rapa); [16]): 0
Plant response rating, Canola (canola (Brassica rapa); [17]): 0

Cn1ncc(O)c(-c2nn(-c3ccc(Cl)cc3)cc2Cl)c1=O [Compound 28]
Plant response rating, Canola (canola (Brassica rapa); [14]): 0
Plant response rating, Canola (canola (Brassica rapa); [15]): 0
Plant response rating, Canola (canola (Brassica rapa); [16]): 0
Plant response rating, Canola (canola (Brassica rapa); [17]): 0

Cc1cn(-c2ccc(Cl)cc2)nc1-c1c(O)cnn(C)c1=O [Compound 30, 4-[1-(4-chlorophenyl)-4-methyl-1H-pyrazol-3-yl]-5-hydroxy-2-methyl-3(2H)-pyridazinone]
Plant response rating, Canola (canola (Brassica rapa); [14]): 0
Plant response rating, Canola (canola (Brassica rapa); [15]): 0
Plant response rating, Canola (canola (Brassica rapa); [16]): 0
Plant response rating, Canola (canola (Brassica rapa); [17]): 0

Cn1ncc(O)c(-c2nn(-c3ccc(Cl)cc3)cc2Br)c1=O [Compound 31]
Plant response rating, Spiderwort, T. ([9]; 16 g ai/ha, Preemergence): 0
Plant response rating, Spiderwort, T. ([9]; 31 g ai/ha, Preemergence): 0
Plant response rating, Spiderwort, T. ([9]; 62 g ai/ha, Preemergence): 0
Plant response rating, Spiderwort, T. ([9]; Postemergence, 8 g ai/ha): 0
Plant response rating, Spiderwort, T. ([9]; Postemergence, 16 g ai/ha): 0
Plant response rating, Spiderwort, T. ([9]; Postemergence, 31 g ai/ha): 0
Plant response rating, Spiderwort, T. ([9]; Postemergence, 62 g ai/ha): 0
